Assay: Hydrolysis stability test: 10% test material in solution adjusted to pH 5 with lactic acid, placed at 50 C. for 5 days
Format: physicochemical
Settings: pH adjusted to 5 with lactic acid
Excerpt: The compounds of the present invention are stable to hydrolysis and provide emollient properties to skin. Typical of the stability of the compounds of the present invention compared to acetate salts is as follows:
pH adjusted to 5 with lactic acid.
10% test material added to get solution.
Placed at 50 C. for 5 days.

| Substance | Result (stability to hydrolysis) |
| --- | --- |
| Glycereth-7-Methoxy capped | Stable clear liquid |
| Glycereth-7-acetate | Acetic smell, hydrolyzed |
